A short description of the data set: Solubility of dispersants in purified water. Format: physicochemical.

These results are taken from patent publication US20100233532A1, “Composition for battery” (TOYO INK MFG. CO., LTD., priority 2007, published 2010).

Description: Evaluations of solubility were carried out by evaluating dispersants having solubility in purified water of 0.02% or more as “O” (soluble) and those having solubility of less than 0.02% as “x” (insoluble).

For the compound `Cc1ccc(Nc2nc(Nc3ccccc3)nc(Nc3ccc4[nH]c(=O)[nH]c4c3)n2)cc1S(=O)(=O)O` [Dispersant A], the Solubility in water result is listed as “Salt forming substance: None Solubility in water: ∘”.
The entry for `O=P(O)(O)c1ccc(Nc2nc(Nc3ccc4ccccc4c3)nc(Nc3ccc4ccccc4c3)n2)cc1` [Dispersant F] is “Salt forming substance: None Solubility in water: ∘”; for `CC1(C)CC(Nc2nc(Nc3ccc(P(=O)(O)O)cc3)nc(Nc3ccc4[nH]c(=O)[nH]c4c3)n2)CC(C)(CNc2nc(Nc3ccc(P(=O)(O)O)cc3)nc(Nc3ccc4[nH]c(=O)[nH]c4c3)n2)C1` (stereo not shown) [Dispersant G] it is “Solubility in water: x (solubility of less than 0.02% as “x” (insoluble))”.
Regarding `CCn1c2ccccc2c2cc(Nc3nc(O)nc(Nc4ccc(O)c(C(=O)O)c4)n3)ccc21` [Dispersant H], the Solubility in water entry was “Salt forming substance: None Solubility in water: ∘”.
With `O=C1Cc2ccc(Nc3nc(Nc4ccc(C(=O)O)cc4)nc(Nc4ccc5[nH]c(=O)[nH]c5c4)n3)cc2C1` [Dispersant I] the entry was “Solubility in water: x (solubility of less than 0.02% as “x” (insoluble))”; with `Cc1ccc2cccc(Nc3nc(Nc4ccc(C(=O)O)cc4)nc(Nc4ccc(C(=O)O)cc4)n3)c2n1` [Dispersant J], “Solubility in water: x (solubility of less than 0.02% as “x” (insoluble))”.
Take `O=C(O)c1cc2ccccc2c(N=Nc2ccc([N+](=O)[O-])cc2)c1O` [Dispersant O]: the Solubility in water entry is reported as “Salt forming substance: None Solubility in water: ∘”.
